In series [1] the test system is Rattus norvegicus. Nature of the series: Toxicity in Sprague-Dawley rat assessed as CYP4A1 gene expression in kidney administered as cumulative dose of 15 mg/kg, ip divided into 6 injections for 2 weeks followed by compound washout period of 14 days by RT-PCR analysis relative to control. The class given is organism-based. As to conditions: in vivo, 336 h. On the set-up: dose 15 mg/kg, route intraperitoneal.

Series [2] relates to Rattus norvegicus. Briefly: Toxicity in Sprague-Dawley rat assessed as CYP4A3 gene expression in liver administered as cumulative dose of 15 mg/kg, ip divided into 6 injections for 2 weeks followed by compound washout period of 14 days by RT-PCR analysis relative to control. Type of series: organism-based. On the set-up: dose 15 mg/kg, route intraperitoneal. As to conditions: in vivo, 336 h.

For series [3], the system named is Rattus norvegicus. Nature of the series: Toxicity in Sprague-Dawley rat assessed as CYP2B1 gene expression in kidney administered as cumulative dose of 15 mg/kg, ip divided into 6 injections for 2 weeks followed by compound washout period of 14 days by RT-PCR analysis relative to control. The class given is organism-based. Further details: dose 15 mg/kg, route intraperitoneal. As to conditions: in vivo, 336 h.

Series [4] has as its system H9c2. Nature of the series: Cytotoxicity against rat H9c2 cells assessed as reduction in ANP mRNA expression at 1 uM after 6 hrs in presence of HET0016. The class given is cell-based. As to conditions: h9c2, 6 h.
Series [5] has as its system Rattus norvegicus. Nature of the series: Toxicity in Sprague-Dawley rat assessed as inhibition of CYP2C11 gene expression in liver administered as cumulative dose of 15 mg/kg, ip divided into 6 injections for 2 weeks followed by compound washout period of 14 days by RT-PCR analysis relative to control. As to conditions: in vivo, 336 h. The class given is organism-based. On the set-up: dose 15 mg/kg, route intraperitoneal.

Series [6] has as its system Rattus norvegicus. Briefly: Cardiotoxicity in Sprague-Dawley rat assessed as increase in ANP gene expression level administered as cumulative dose of 15 mg/kg, ip divided into 6 injections for 2 weeks followed by compound washout period of 14 days by RT-PCR analysis relative to control. Type of series: toxicity, organism-based. On the set-up: dose 15 mg/kg, route intraperitoneal. As to conditions: 336 h.

The test system of series [7] is Rattus norvegicus. Briefly: Toxicity in Sprague-Dawley rat assessed as CYP4F4 gene expression in liver administered as cumulative dose of 15 mg/kg, ip divided into 6 injections for 2 weeks followed by compound washout period of 14 days by RT-PCR analysis relative to control. The class given is organism-based. As to conditions: in vivo, 336 h. On the set-up: dose 15 mg/kg, route intraperitoneal.

The test system of series [8] is Rattus norvegicus. Briefly: Cardiotoxicity in Sprague-Dawley rat assessed as increase in CYP4A1 gene expression level administered as cumulative dose of 15 mg/kg, ip divided into 6 injections for 2 weeks followed by compound washout period of 14 days by RT-PCR analysis relative to control. The class given is toxicity, organism-based. On the set-up: dose 15 mg/kg, route intraperitoneal. As to conditions: in vivo, 336 h.

In series [9] the test system is CYP1B1. Nature of the series: Toxicity in Sprague-Dawley rat assessed as induction of CYP1B1 gene expression in kidney administered as cumulative dose of 15 mg/kg, ip divided into 6 injections for 2 weeks followed by compound washout period of 14 days by RT-PCR analysis relative to control. Type of series: organism-based. On the set-up: dose 15 mg/kg, route intraperitoneal.

The test system of series [10] is CYP4F5. Briefly: Cardiotoxicity in Sprague-Dawley rat assessed as increase in CYP4F5 gene expression level administered as cumulative dose of 15 mg/kg, ip divided into 6 injections for 2 weeks followed by compound washout period of 14 days by RT-PCR analysis relative to control. On the set-up: dose 15 mg/kg, route intraperitoneal. The conditions noted are these: heart. The class given is toxicity, organism-based.

Series [11] relates to Rattus norvegicus. Nature of the series: Toxicity in Sprague-Dawley rat assessed as CYP4A1 gene expression in liver administered as cumulative dose of 15 mg/kg, ip divided into 6 injections for 2 weeks followed by compound washout period of 14 days by RT-PCR analysis relative to control. As to conditions: in vivo, 336 h. On the set-up: dose 15 mg/kg, route intraperitoneal. The class given is organism-based.

The subject of series [12] is CYP4F5. Briefly: Toxicity in Sprague-Dawley rat assessed as induction of CYP4F5 gene expression in liver administered as cumulative dose of 15 mg/kg, ip divided into 6 injections for 2 weeks followed by compound washout period of 14 days by RT-PCR analysis relative to control. Further details: dose 15 mg/kg, route intraperitoneal. Type of series: organism-based.
In series [13] the test system is H9c2. Briefly: Cytotoxicity against rat H9c2 cells assessed as reduction in BNP mRNA expression at 1 uM after 6 hrs in presence of HET0016. Type of series: cell-based. As to conditions: h9c2, 6 h.
The test system of series [14] is Rattus norvegicus. Briefly: Cardiotoxicity in Sprague-Dawley rat assessed as increase in CYP2J3 gene expression level administered as cumulative dose of 15 mg/kg, ip divided into 6 injections for 2 weeks followed by compound washout period of 14 days by RT-PCR analysis relative to control. The class given is toxicity, organism-based. On the set-up: dose 15 mg/kg, route intraperitoneal. The conditions noted are these: in vivo, 336 h.

The test system of series [15] is Rattus norvegicus. Nature of the series: Toxicity in Sprague-Dawley rat assessed as inhibition of CYP2B2 gene expression in kidney administered as cumulative dose of 15 mg/kg, ip divided into 6 injections for 2 weeks followed by compound washout period of 14 days by RT-PCR analysis relative to control. The class given is organism-based. As to conditions: in vivo, 336 h. On the set-up: dose 15 mg/kg, route intraperitoneal.

In series [16] the test system is Rattus norvegicus. Nature of the series: Cardiotoxicity in Sprague-Dawley rat assessed as increase in CYP2B1 gene expression level administered as cumulative dose of 15 mg/kg, ip divided into 6 injections for 2 weeks followed by compound washout period of 14 days by RT-PCR analysis relative to control. Type of series: toxicity, organism-based. On the set-up: dose 15 mg/kg, route intraperitoneal. As to conditions: in vivo, 336 h.

As for `COc1cccc2c1C(=O)c1c(O)c3c(c(O)c1C2=O)C[C@@](O)(C(=O)CO)C[C@@H]3O[C@H]1C[C@H](N)[C@H](O)[C@H](C)O1` [DOXORUBICIN], the Activity result in series [1] is on record as “Non-toxic”; in series [2] it was “Non-toxic”; in series [3] it was “Non-toxic”; in series [4], “Toxic”; in series [7] it was “Non-toxic”; in series [8], “Non-toxic”. Also, the Activity entry in [11] is recorded as “Non-toxic”; in series [13], “Toxic”; in [14] it was “Non-toxic”; in series [16], “Non-toxic”. Further, the Ratio in series [5] was 0.7; in series [15] it was 0.74. Further, in series [6], the fold induction (in general, the ratio of treated to control signal) at 15 mg/kg came out at 3.5. Besides, the fold induction at 336 h is 1.8 in series [9], 2 in series [10] and 1.8 in series [12].

(Values after ChEMBL document CHEMBL3525908, “Chronic doxorubicin cardiotoxicity modulates cardiac cytochrome P450-mediated arachidonic acid metabolism in rats” (Drug Metab Dispos, 2012).)
